In patent publication US11718604B2, “4-amino-6-(1,3-benzodioxole)picolinates and their use as herbicides” (Dow AgroSciences LLC, priority 2018, dated 2023):

Experiments:
Format in all cases: in vivo
[1] = system: SORVU: shattercane (Sorghum bicolor); assay: Post-emergent herbicidal test, shattercane; details: post-emergence, 336 h, 14 days after application, read-out: Visual Growth Reduction (%) 14 Days After Application SORVU; for pest or weed control at 17.5 g/ha: 17.5 g ai/ha; for pest or weed control at 35 g/ha: 35 g ai/ha; for pest or weed control at 70 g/ha: 70 g ai/ha; for pest or weed control at 140 g/ha: 140 g ai/ha
How it was run: (§1)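 Plants are raised in potting mix of pH 6.0 to 6.8 in a greenhouse until the first or second true leaf, then sprayed with formulated compound at 187 L/ha at several rates (½× to 1/16× of the top rate). After 14 d, damage is rated visually as percent injury against untreated plants.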

[2] = system: IPOHE: ivyleaf morningglory (Ipomoea hederacea); assay: Post-emergent herbicidal test, ivyleaf morningglory; details: post-emergence, 336 h, 14 days after application, read-out: Visual Growth Reduction (%) 14 Days After Application IPOHE; for pest or weed control at 17.5 g/ha: 17.5 g ai/ha; for pest or weed control at 35 g/ha: 35 g ai/ha; for pest or weed control at 70 g/ha: 70 g ai/ha; for pest or weed control at 140 g/ha: 140 g ai/ha
How it was run: as §1

[3] = system: CIRAR: Canada thistle (Cirsium arvense); assay: Post-emergent herbicidal test, Canada thistle; details: post-emergence, 336 h, 14 days after application, read-out: Visual Growth Reduction (%) 14 Days After Application CIRAR; for pest or weed control at 17.5 g/ha: 17.5 g ai/ha; for pest or weed control at 35 g/ha: 35 g ai/ha; for pest or weed control at 70 g/ha: 70 g ai/ha; for pest or weed control at 140 g/ha: 140 g ai/ha
How it was run: as §1

[4] = system: CYPES: yellow nutsedge (Cyperus esculentus); assay: Post-emergent herbicidal test, yellow nutsedge; details: post-emergence, 336 h, 14 days after application, read-out: Visual Growth Reduction (%) 14 Days After Application CYPES; for pest or weed control at 17.5 g/ha: 17.5 g ai/ha; for pest or weed control at 35 g/ha: 35 g ai/ha; for pest or weed control at 70 g/ha: 70 g ai/ha; for pest or weed control at 140 g/ha: 140 g ai/ha
How it was run: as §1

[5] = system: ECHCG: barnyardgrass (Echinochloa crus-galli); assay: Post-emergent herbicidal test, barnyardgrass; details: post-emergence, 336 h, 14 days after application, read-out: Visual Growth Reduction (%) 14 Days After Application ECHCG; for pest or weed control at 17.5 g/ha: 17.5 g ai/ha; for pest or weed control at 35 g/ha: 35 g ai/ha; for pest or weed control at 70 g/ha: 70 g ai/ha; for pest or weed control at 140 g/ha: 140 g ai/ha
How it was run: as §1

[6] = system: BRSNN: oilseed rape, canola (Brassica napus); assay: Post-emergent herbicidal test, oilseed rape; details: post-emergence, 336 h, 14 days after application, read-out: Visual Growth Reduction (%) 14 Days After Application BRSNN; for pest or weed control at 17.5 g/ha: 17.5 g ai/ha; for pest or weed control at 35 g/ha: 35 g ai/ha; for pest or weed control at 70 g/ha: 70 g ai/ha; for pest or weed control at 140 g/ha: 140 g ai/ha
How it was run: as §1

[7] = system: VIOTR: wild violet (Viola tricolor); assay: Post-emergent herbicidal test, wild violet; details: post-emergence, 336 h, 14 days after application, read-out: Visual Growth Reduction (%) 14 Days After Application VIOTR; for pest or weed control at 17.5 g/ha: 17.5 g ai/ha; for pest or weed control at 35 g/ha: 35 g ai/ha; for pest or weed control at 70 g/ha: 70 g ai/ha; for pest or weed control at 140 g/ha: 140 g ai/ha
How it was run: as §1

[8] = system: SETFA: giant foxtail (Setaria faberi); assay: Post-emergent herbicidal test, giant foxtail; details: post-emergence, 336 h, 14 days after application, read-out: Visual Growth Reduction (%) 14 Days After Application SETFA; for pest or weed control at 17.5 g/ha: 17.5 g ai/ha; for pest or weed control at 35 g/ha: 35 g ai/ha; for pest or weed control at 70 g/ha: 70 g ai/ha; for pest or weed control at 140 g/ha: 140 g ai/ha
How it was run: as §1

[9] = system: EPHHL: wild poinsettia (Euphorbia heterophylla); assay: Post-emergent herbicidal test, wild poinsettia; details: post-emergence, 336 h, 14 days after application, read-out: Visual Growth Reduction (%) 14 Days After Application EPHHL; for pest or weed control at 17.5 g/ha: 17.5 g ai/ha; for pest or weed control at 35 g/ha: 35 g ai/ha; for pest or weed control at 70 g/ha: 70 g ai/ha; for pest or weed control at 140 g/ha: 140 g ai/ha
How it was run: as §1

[10] = system: DIGSA: large crabgrass (Digitaria sanguinalis); assay: Post-emergent herbicidal test, large crabgrass; details: post-emergence, 336 h, 14 days after application, read-out: Visual Growth Reduction (%) 14 Days After Application DIGSA; for pest or weed control at 17.5 g/ha: 17.5 g ai/ha; for pest or weed control at 35 g/ha: 35 g ai/ha; for pest or weed control at 70 g/ha: 70 g ai/ha; for pest or weed control at 140 g/ha: 140 g ai/ha
How it was run: as §1

[11] = system: ABUTH: velvetleaf (Abutilon theophrasti); assay: Post-emergent herbicidal test, velvetleaf; details: post-emergence, 336 h, 14 days after application, read-out: Visual Growth Reduction (%) 14 Days After Application ABUTH; for pest or weed control at 17.5 g/ha: 17.5 g ai/ha; for pest or weed control at 35 g/ha: 35 g ai/ha; for pest or weed control at 70 g/ha: 70 g ai/ha; for pest or weed control at 140 g/ha: 140 g ai/ha
How it was run: as §1

COC(=O)c1nc(-c2ccc(Cl)c3c2OC(F)(F)O3)c(F)c(N)c1Cl [Compound 6]
pest or weed control at 17.5 g/ha [1]: 0% | pest or weed control at 35 g/ha [1]: 2% | pest or weed control at 70 g/ha [1]: 10% | pest or weed control at 140 g/ha [1]: 23% | pest or weed control at 17.5 g/ha [2]: 0% | pest or weed control at 35 g/ha [2]: 3% | pest or weed control at 70 g/ha [2]: 3% | pest or weed control at 140 g/ha [2]: 10% | pest or weed control at 17.5 g/ha [3]: 70% | pest or weed control at 35 g/ha [3]: 77% | pest or weed control at 70 g/ha [3]: 85% | pest or weed control at 140 g/ha [3]: 88% | pest or weed control at 17.5 g/ha [4]: 30% | pest or weed control at 35 g/ha [4]: 25% | pest or weed control at 70 g/ha [4]: 25% | pest or weed control at 140 g/ha [4]: 60% | pest or weed control at 17.5 g/ha [5]: 0% | pest or weed control at 35 g/ha [5]: 0% | pest or weed control at 70 g/ha [5]: 3% | pest or weed control at 140 g/ha [5]: 3% | pest or weed control at 17.5 g/ha [6]: 80% | pest or weed control at 35 g/ha [6]: 82% | pest or weed control at 70 g/ha [6]: 92% | pest or weed control at 140 g/ha [6]: 97% | pest or weed control at 17.5 g/ha [7]: 3% | pest or weed control at 35 g/ha [7]: 12% | pest or weed control at 70 g/ha [7]: 30% | pest or weed control at 140 g/ha [7]: 53% | pest or weed control at 17.5 g/ha [8]: 0% | pest or weed control at 35 g/ha [8]: 0% | pest or weed control at 70 g/ha [8]: 0% | pest or weed control at 140 g/ha [8]: 3% | pest or weed control at 17.5 g/ha [9]: 2% | pest or weed control at 35 g/ha [9]: 0% | pest or weed control at 70 g/ha [9]: 2% | pest or weed control at 140 g/ha [9]: 7% | pest or weed control at 17.5 g/ha [10]: 0% | pest or weed control at 35 g/ha [10]: 0% | pest or weed control at 70 g/ha [10]: 0% | pest or weed control at 140 g/ha [10]: 0% | pest or weed control at 17.5 g/ha [11]: 75% | pest or weed control at 35 g/ha [11]: 77% | pest or weed control at 70 g/ha [11]: 80% | pest or weed control at 140 g/ha [11]: 83%

COC(=O)c1nc(-c2ccc(F)c3c2OCO3)c(F)c(N)c1Cl [Compound 15]
pest or weed control at 17.5 g/ha [1]: 0% | pest or weed control at 35 g/ha [1]: 0% | pest or weed control at 70 g/ha [1]: 0% | pest or weed control at 140 g/ha [1]: 20% | pest or weed control at 17.5 g/ha [2]: 0% | pest or weed control at 35 g/ha [2]: 0% | pest or weed control at 70 g/ha [2]: 0% | pest or weed control at 140 g/ha [2]: 0% | pest or weed control at 17.5 g/ha [3]: 80% | pest or weed control at 35 g/ha [3]: 85% | pest or weed control at 70 g/ha [3]: 90% | pest or weed control at 140 g/ha [3]: 95% | pest or weed control at 17.5 g/ha [4]: 0% | pest or weed control at 35 g/ha [4]: 0% | pest or weed control at 70 g/ha [4]: 0% | pest or weed control at 140 g/ha [4]: 0% | pest or weed control at 17.5 g/ha [5]: 0% | pest or weed control at 35 g/ha [5]: 0% | pest or weed control at 70 g/ha [5]: 0% | pest or weed control at 140 g/ha [5]: 0% | pest or weed control at 17.5 g/ha [6]: 20% | pest or weed control at 35 g/ha [6]: 40% | pest or weed control at 70 g/ha [6]: 95% | pest or weed control at 140 g/ha [6]: 100% | pest or weed control at 17.5 g/ha [7]: 30% | pest or weed control at 35 g/ha [7]: 60% | pest or weed control at 70 g/ha [7]: 70% | pest or weed control at 140 g/ha [7]: 80% | pest or weed control at 17.5 g/ha [8]: 0% | pest or weed control at 35 g/ha [8]: 0% | pest or weed control at 70 g/ha [8]: 0% | pest or weed control at 140 g/ha [8]: 20% | pest or weed control at 17.5 g/ha [9]: 0% | pest or weed control at 35 g/ha [9]: 0% | pest or weed control at 70 g/ha [9]: 0% | pest or weed control at 140 g/ha [9]: 0% | pest or weed control at 17.5 g/ha [10]: 0% | pest or weed control at 35 g/ha [10]: 0% | pest or weed control at 70 g/ha [10]: 0% | pest or weed control at 140 g/ha [10]: 0% | pest or weed control at 17.5 g/ha [11]: 70% | pest or weed control at 35 g/ha [11]: 85% | pest or weed control at 70 g/ha [11]: 90% | pest or weed control at 140 g/ha [11]: 100%
